Results from patent US12697315B2, “Treatment for interstitial lung disease” (United Therapeutics Corporation, priority 2020, dated 2026).

Assays:
Format in all cases: in vivo, human
[1] = system: patients with interstitial lung disease and pulmonary hypertension; experiment: 6-minute walk test, INCREASE
Experimental: (§1) We enrolled patients with interstitial lung disease and pulmonary hypertension (documented by right heart catheterization) in a multicenter, randomized, double-blind, placebo-controlled, 16-week trial. Patients were assigned in a 1:1 ratio to receive inhaled treprostinil, administered by means of an ultrasonic, pulsed-delivery nebulizer in up to 12 breaths (total, 72 μg) four times daily, or placebo. The primary efficacy end point was the difference between the two treatment groups in the change in peak 6-minute walk distance from baseline to week 16. Secondary end points included the change in N-terminal pro-B-type natriuretic peptide (NT-proBNP) level at week 16 and the time to clinical worsening.
(§2) The 6-minute walk test was performed and laboratory data were obtained at baseline and at weeks 4, 8, 12, and 16, or at the time of early discontinuation of treprostinil or placebo. Each 6-minute walk test was performed 10 to 60 minutes after the most recent dose of active drug or placebo, which is the time of peak plasma treprostinil exposure. A trough test was performed at week 15 at least 4 hours after the participant received a dose of treprostinil or placebo and at least 24 hours before the week 16 test. Pulse oximetry was performed immediately before, during, and after each 6-minute walk test. Measurement of N-terminal pro-B-type natriuretic peptide (NT-proBNP) levels and pulmonary function tests were performed at baseline and at weeks 8 and 16 (or at early discontinuation) after the patients recovered from the 6-minute walk test. The St. George's Respiratory Questionnaire (SGRQ), a quality-of-life measure, was completed at baseline and week 16 or at the time of early discontinuation.
(§3) The primary end point of the trial was the difference between the two groups in the change in peak 6-minute walk distance from baseline to week 16. Secondary efficacy end points were analyzed in the following hierarchical testing order: the change in NT-proBNP level from baseline to week 16, the time to clinical worsening, the change in 6-minute walk distance at peak plasma treprostinil level at week 12, and the change in 6-minute walk distance at trough treprostinil level at week 15. The time to clinical worsening was evaluated from the time of randomization until the patient's withdrawal from the trial and was defined as the time until the occurrence of any one of the following events: hospitalization for a cardiopulmonary indication, a decrease in 6-minute walk distance greater than 15% from baseline that was directly related to the disease under study at two consecutive visits and at least 24 hours apart, death from any cause, or lung transplantation.
For the primary efficacy analysis, the change in 6-minute walk distance was analyzed by mixed-model repeated-measures methods, under the assumption that missing data were missing at random. The model included the change from baseline to peak 6-minute walk distance as the dependent variable, with treatment, week, and treatment-by-week interaction as fixed effects, and the baseline 6-minute walk distance as a covariate. A sensitivity analysis for the primary end point was performed by means of a multiple imputation approach with a multivariate normal imputation model according to the Markov chain Monte Carlo method. The imputation model included treatment group, all scheduled visits, the patient's sex, and the patient's age at randomization. If the result for the primary efficacy end point was significant, secondary efficacy end points were to be evaluated according to a hierarchical testing procedure. Confidence intervals have not been adjusted for multiplicity and can-not be used to infer definitive treatment effects for secondary efficacy end points.

NT-proBNP = experiment: Plasma NT-proBNP level, INCREASE; details: for NT-proBNP treatment ratio (ratio of ratios between treatment groups): vs placebo, week 16
Experimental: as §1, §2, §3

[2] = system: patients with interstitial lung disease and pulmonary hypertension; experiment: Occurrence of / time to clinical worsening, INCREASE
Experimental: as §3

[3] = system: patients with interstitial lung disease and pulmonary hypertension; experiment: Distance saturation product, INCREASE
Experimental: Change in distance saturation product is the product of distance walked and lowest SpO2 recorded during the 6-minute walk test.^7 Change from baseline to Week 16 in distance saturation product was analyzed by parametric ANCOVA with no imputation for missing distance saturation product values.

[4] = vs placebo, listed as Inhaled Treprostinil
[5] = vs placebo, listed as inhaled treprostinil

CCCCC[C@H](O)CC[C@@H]1[C@H]2Cc3cccc(OCC(=O)O)c3C[C@H]2C[C@H]1O [Inhaled treprostinil, treprostinil]
Change in peak 6-minute walk distance from baseline to wk 16 ([1]; LS mean ± SE, MMRM): 21.08 ± 5.12 m | Least-squares mean change in peak 6-minute walk distance from baseline to wk 12 ([1]; mean ± SE): 18.77 ± 4.99 m | Least-squares mean change in trough 6-minute walk distance from baseline to wk 15 ([1]; mean ± SE): 9.3 ± 5.5 m | Treatment effect, least-squares mean difference in change in peak 6-minute walk distance, baseline to wk 16 ([1]; vs placebo, MMRM, listed as Inhaled Treprostinil): 31.12 ± 7.25 m | Treatment effect, least-squares mean difference in change in peak 6-minute walk distance, baseline to wk 16 ([1]; vs placebo, MMRM, listed as inhaled treprostinil): 31.12 m | Treatment effect, least-squares mean difference in change in peak 6-minute walk distance, baseline to wk 16 ([1]; vs placebo, MMRM, listed as treprostinil): 31.12 m | Treatment effect, least-squares mean difference in peak 6-minute walk distance, baseline to wk 12 [1, 4]: 31.29 ± 7.07 m | Treatment effect, least-squares mean difference in trough 6-minute walk distance, baseline to wk 15 [1, 4]: 21.99 ± 7.7 m | Treatment effect, least-squares mean difference in peak 6-minute walk distance, baseline to wk 12 [1, 5]: 31.29 m | Treatment effect, least-squares mean difference in trough 6-minute walk distance, baseline to wk 15 [1, 5]: 21.99 m | between-group difference in change from baseline in peak 6-minute walk distance at week 16 ([1]; vs placebo, multiple imputation, Markov chain Monte Carlo): 30.97 m | Change in plasma concentration of NT-proBNP from baseline to wk 16, Mean (±SD) change (NT-proBNP; 156 patients): -396.35 ± 1904.90 pg/mL | Change in plasma concentration of NT-proBNP from baseline to wk 16, Median (NT-proBNP; 156 patients): -22.65 pg/mL | reduction in NT-proBNP compared to placebo (NT-proBNP; Week 16): 42% | reduction in NT-proBNP levels from baseline (NT-proBNP; Week 16): 15% | NT-proBNP treatment ratio (ratio of ratios between treatment groups) (NT-proBNP; listed as Inhaled Treprostinil): ±0.58 ± 0.06 | NT-proBNP treatment ratio (ratio of ratios between treatment groups) (NT-proBNP; listed as inhaled treprostinil): 0.58 | NT-proBNP, Ratio to baseline (NT-proBNP; wk 16, LS mean of log-transformed data ± SE): 0.85 ± 0.06 | patients with clinical worsening ([2]; 16 weeks): 22.7% | patients with first occurrence of clinical worsening that involved hospitalization for a cardiopulmonary indication ([2]; 16 weeks): 11.0% | Clinical worsening: Death from any cause ([2]; 16 weeks, N = 163): 4 (2.5) no. (%) | Clinical worsening: Decrease in 6 minute walk distance of >15% from baseline ([2]; 16 weeks, N = 163): 13 (8.0) no. (%) | Clinical worsening: Hospitalization for cardiopulmonary indication ([2]; 16 weeks, N = 163): 18 (11.0) no. (%) | Clinical worsening: Lung transplantation ([2]; 16 weeks, N = 163): 2 (1.2) no. (%) | Occurrence of clinical worsening: Any event ([2]; 16 weeks, N = 163): 37 (22.7) no. (%) | Occurrence of clinical worsening, hazard ratio ([2]; vs placebo, Cox proportional-hazards model, listed as inhaled treprostinil): 0.61 | Distance saturation product, Week 16 Change from Baseline, LS Mean (SE) ([3]; ANCOVA): 7.2 (4.5) m % | Distance saturation product, Week 16 Change from Baseline, Mean (SD) ([3]; n 118): 7.607 (45.680) m % | Distance saturation product, Week 16 Change from Baseline, Median ([3]; n 118): 8.385 m % | Distance saturation product, LS Mean Difference (SE) ([3]; week 16, vs placebo): 11.51 (6.5), 95% CI (−1.33, 24.35) m % | between-group difference in the distance-saturation product ([3]; week 16, vs placebo): no significant between-group difference
